The record followed here is patent US20150087045A1, “CRYSTAL STRUCTURE OF HCV […] AND METHODS OF USE” (GILEAD P[…], priority 2012, published 2015).

The nature of series [1]: Thermofluor analysis: melting temperature of polymerase constructs. It counts as physicochemical. The settings on record: polymerase itself. As to the method:
Thermofluor analysis of HCV polymerases 1bWT, 1bΔ8, 2aWT, and 2aΔ8 was performed as previously described (36, 37) in the absence and presence of symmetrical primer-template pairs or fused hairpin primer-template RNA as described in Example 2.

Series [2] has as its system genotype 1b (−) IRES RNA template. Nature of the series: De novo RNA synthesis activity of HCV NS5B polymerase constructs. It counts as biochemical, hepatitis C virus. The settings on record: 2a Δ8 with Gly-Gly linker compared to wild-type 2a. As to the method: HCV activity assays were performed in a 200 μL mixture containing 1 μM of the four natural ribonucleotides, [α-^32P]UTP, 20 ng/μL of genotype 1b (−) IRES RNA template, 1 unit/μL of SUPERase.In (Ambion, Austin, Tex.), 40 ng/μL of NS5B, 5 mM MgCl2, and 2 mM DTT in 50 mM HEPES buffer (pH 7.5). The reaction was incubated at 27° C. and 20 μL aliquots were taken at the desired time points and quenched by mixing in 80 μL of stop solution (12.5 mM EDTA, 2.25 M NaCl, and 225 mM sodium citrate).

In series [3] the target is T1, HCV NS5B polymerase 1b WT (Hepatitis C virus genotype 1b, UniProt P26663, E2505Q/E2506Q/K2533R/L2466Q/R2963Q).
T1 construct: 1b WT; made in house; host or cells: E. coli Rosetta DE3
Briefly: Inhibition assay (chain termination) with construct 1b WT. The class given is biochemical, hepatitis C virus genotype 1b BK isolate. The settings on record: one value or range given for both 1b WT and 1b Δ8. As to the method: For constructs 1bWT and 1bΔ8, inhibition assays were performed in a 120 μL mixture containing 5 μM of the four natural ribonucleotides, [α-^32P]UTP, 20 ng/μL of genotype 1b (−) IRES RNA template, 1 unit/μL of SUPERase.In (Ambion, Austin, Tex.), 40 ng/μL of NS5B, 5 mM MgCl2, and 2 mM DTT in 50 mM HEPES buffer (pH 7.5). The reaction was incubated at 27° C. and a 20 μL aliquot was taken at 0, 30, 60, 90, and 120 minute time points and quenched by mixing with 80 μL of stop solution (12.5 mM EDTA, 2.25 M NaCl, and 225 mM sodium citrate). The radioactive RNA products were separated from unreacted substrates using a Hybond N+ membrane (GE Healthcare) as described previously (FIG. 2). The products were visualized and quantified using a phosphorimager. The reaction rates and IC 50 values were calculated using GraphFit.

In series [4] the test system is HCV polymerase 1b Δ8 S282T. Nature of the series: Inhibition assay (chain termination) with construct 1b Δ8 S282T. It counts as biochemical, hepatitis C virus genotype 1b BK isolate. The settings on record: upon introduction of S282T into 1b Δ8.
Series [5] addresses T2, HCV polymerase 1b Δ8 S282T (Hepatitis C virus genotype 1b, UniProt P26663, DEL2863-2870/E2505Q/E2506Q/K2533R/L2466Q/R2963Q/S2701T/S2872G/Y2871G).
T2 construct: 1bΔ8 S282T; made in house; host or cells: E. coli Rosetta DE3
Described as above. It counts as biochemical, hepatitis C virus genotype 1b BK isolate.

Series [6] has as its system HCV polymerase 1b S282T. Briefly: Inhibition assay (chain termination) with construct 1b S282T. The class given is biochemical, hepatitis C virus genotype 1b BK isolate. The settings on record: upon introduction of S282T into 1b WT.
In series [7] the target is T3, HCV polymerase 1b S282T (Hepatitis C virus genotype 1b, UniProt P26663, E2505Q/E2506Q/K2533R/L2466Q/R2963Q/S2701T).
T3 construct: 1b S282T; made in house; host or cells: E. coli Rosetta DE3
The description is as above. The class given is biochemical, hepatitis C virus genotype 1b BK isolate.

Series [8] addresses T4, HCV NS5B polymerase 1b Δ8 (Hepatitis C virus genotype 1b, UniProt P26663, DEL2863-2870/E2505Q/E2506Q/K2533R/L2466Q/R2963Q/S2872G/Y2871G).
T4 construct: 1bΔ8; made in house; host or cells: E. coli Rosetta DE3
Nature of the series: Inhibition assay (chain termination) with construct 1b Δ8. It counts as biochemical, hepatitis C virus genotype 1b BK isolate. The settings on record: for IC50: one value or range given for both 1b WT and 1b Δ8.

The target in series [9] is T5, HCV NS5B polymerase 2a Δ8 (Hepatitis C virus genotype 2a, UniProt Q99IB8, DEL2886-2893/E2528Q/E2529Q/S2895G/Y2894G).
T5 construct: 2aΔ8; made in house; host or cells: E. coli Rosetta DE3
Briefly: Inhibition assay (chain termination) with construct 2a Δ8. It counts as biochemical, hepatitis C virus genotype 2a JFH1 isolate. The settings on record: 15 minutes incubation, 27° C. As to the method:
(§1) For constructs 2aWT and 2aΔ8, inhibition assays were performed in a 20 μL mixture containing varying concentrations of PSI-352666 or 2′-C-MeGTP, 5 μM of the four natural ribonucleotides, [α-^32P]UTP, 20 ng/μL of genotype 1b (−) IRES RNA template, 1 unit/μL of SUPERase.In (Ambion, Austin, Tex.), 40 ng/μL of NS5B, 5 mM MgCl2, and 2 mM DTT in 50 mM HEPES buffer (pH 7.5).
(§2) The reaction was incubated at 27° C. and quenched by adding 80 μL of stop solution after 60 minutes incubation with 2aWT or 15 minutes incubation with 2aΔ8. The radioactive RNA products were separated from unreacted substrates using a Hybond N+ membrane (GE Healthcare) as described previously^28. The products were visualized and quantified using a phosphorimager. The reaction rates and the IC50 values were calculated using GraphFit (Erithacus Software, Horley, Surrey, UK).

Series [10] concerns the target T6, HCV NS5B polymerase 2a WT (Hepatitis C virus genotype 2a, UniProt Q99IB8, E2528Q/E2529Q).
T6 construct: 2a WT; made in house; host or cells: E. coli Rosetta DE3
Briefly: Inhibition assay (chain termination) with construct 2a WT. It counts as biochemical, hepatitis C virus genotype 2a JFH1 isolate. The settings on record: 60 minutes incubation, 27° C. As for the experimental part:
as §1, §2

“And” between values parts separate entries of the source, which are not always exact repeats. Identical values can stand only once. Where only a bound is given, the exact number is not on record here.

Take “2a WT: HCV polymerase genotype 2a JFH-1 construct, SEQ ID NO:3, C-terminal 21 amino acids replaced by hexahistidine tag, E86Q and E87Q”: the “melting temperature (Tm)” value in [1] is approximately 41 °C.

Regarding “2a Δ8: 2a WT with the β-hairpin replaced by a Gly-Gly linker, SEQ ID NO:8”, the “melting temperature (Tm)” value in [1] was approximately 35 °C. Further, the “de novo RNA synthesis activity compared to 2a WT” value in [2] is reported as more than 100 fold.

In the case of `C[C@@]1(O)[C@H](O)[C@@H](COP(=O)(O)OP(=O)(O)OP(=O)(O)O)O[C@H]1n1cnc2c(=O)[nH]c(N)nc21` [2′-C-MeGTP], the IC50 is 7 to 13 µM in [3], more than 100 µM in [5], more than 100 µM in [7] and 7 to 13 µM in series [8]. Moreover, the “increase in IC50” value in [4] and in [6] was more than 10 fold each time.

For the compound `C[C@@]1(F)[C@H](O)[C@@H](COP(=O)(O)OP(=O)(O)OP(=O)(O)O)O[C@H]1n1cnc2c(=O)[nH]c(N)nc21` [PSI-352666], the IC50 in series [3] is 4 µM; in [9] it was 6 µM and 6.41 µM; in [10], 6.05 ± 0.82 µM; in series [5] it was 9 to 14 µM; in series [7] it was 9 to 14 µM; in [8] it was 4 µM. Also, the “increase in IC50” value in [4] and in series [6] was approximately 2.5 fold in each case. For the same compound, the “chain termination: elongation of the terminated product (*GGCX)” value in series [8] (in the presence of the next correct incoming nucleotide (ATP), 0-60 min) is listed as “not further elongated”.
